Experimental data published in patent US12338256B2, “Aza-tetracyclic oxazepine compounds and uses thereof” (Genentech, Inc., priority 2022, dated 2025).
Like-named read-outs stand apart in the source and are kept apart here.

Assays:
[1] = system: H1975 (KRAS wild type human lung adenocarcinoma cell line); assay: KRAS 3D-Cell Proliferation Assay, H1975 (Example 503); type: cell-based; conditions: H1975 3D culture, 7 days, CellTiter-Glo 3D, read-out: Prolif H1975 3D ATP IC50
Experimental: (§1) Example 503: KRAS 3D-Cell Proliferation Assays. Cellular potencies of compounds are assessed by evaluating inhibition of proliferation in 3D cultures of homozygous mutant KRAS G12D human pancreatic cell lines (AsPC-1 and HPAC) as compared to a KRAS wild type human lung adenocarcinoma cell line (PC-9 and/or H1975). Cells are seeded into 384-well black round-bottom, ultra-low attachment assay plates in 50 uL cell growth medium (RPMI-1640 with 10% fetal bovine serum and 2 mM L-glutamine). After overnight incubation at 37° C. and 5% CO2, compounds solubilized in DMSO are added as dilution series to the wells in a total volume of 150 nL (0.3% DMSO final). The cells are incubated for 7 days at 37° C. and 5% CO2. Cell proliferation is quantitated by addition of 40 uL/well of CellTiter-GloÒ 3D (Promega), and the well contents are mixed 20× at high speed using liquid handling automation workstation (Bravo with 384-well head) and centrifuged at 1500 rpm for 2 minutes to eliminate bubbles. This reagent in combination with mechanical disruption releases the cellular ATP to promote activity in a luciferase-based enzyme/substrate chemiluminescent detection system. After a 30-minute incubation under ambient conditions with shaking and an additional 10 minutes without shaking, the luminescence is read on a plate reader (e.g., EnVision [PerkinElmer]). The results are normalized to percent inhibition based on the following control samples: DMSO (0% inhibition) and 1 μM staurosporine (100% inhibition). The normalized luminescence results are plotted against compound concentration, and the data are fit to a 4-parameter Hill equation to determine the IC50 values.

[2] = system: HPAC (homozygous mutant KRAS G12D human pancreatic cell line); assay: KRAS 3D-Cell Proliferation Assay, HPAC (Example 503); type: cell-based; conditions: HPAC 3D culture, 7 days, CellTiter-Glo 3D, read-out: Prolif HPAC 3D ATP IC50
Experimental: as §1

Row | IC50 [1] | SMILES | IC50 ([1]; Homo sapiens, NCI-H1975, 168 h) | IC50 ([2]; Homo sapiens, HPAC, 168 h) | IC50 [2]
1 | – | Cc1c(F)c(N)cc(-c2nc3c4c(nc(OCC5CC(F)C6CCCN56)nc4c2F)N2C[C@H]4CC[C@H](N4)[C@H]2[C@H](C)O3)c1C(F)(F)F (single isomer, unassigned) [160 (diast. 1)] | 1 µM | 0.00807 µM | –
2 | – | Cc1c(F)c(N)cc(-c2nc3c4c(nc(OCC56CCCN5CC(F)C6)nc4c2F)N2CCNCC2C(C)O3)c1C(F)(F)F (single isomer, unassigned) [235 (isomer 1)] | 4.34 µM | 2.42 µM | –
3 | – | Cc1c(F)c(N)cc(-c2nc3c4c(nc(OC[C@@]56CCCN5C[C@H](F)C6)nc4c2F)N2CCNC[C@H]2C(C)O3)c1C(F)(F)F (single isomer, unassigned) [235 (isomer 2)] | 0.262 µM | 0.136 µM | –
4 | – | Cc1c(F)c(N)cc(-c2nc3c4c(nc(OC[C@@]56CCCN5C[C@H](F)C6)nc4c2F)N2C[C@H]4CC[C@H](N4)C2C(C(F)F)O3)c1C(F)(F)F (single isomer, unassigned) [238 (isomer 1)] | 13.5 µM | 2 µM | –
5 | – | Cc1nc(N)cc(-c2nc3c4c(nc(OC[C@@]56CCN5CC(F)(F)C6)nc4c2F)N2C[C@H]4CC[C@H](N4)[C@H]2[C@H](C(F)(F)F)O3)c1C(F)(F)F (single isomer, unassigned) [252 (isomer 1)] | 7.71 µM | 0.0204 µM | –
6 | – | Cc1nc(N)cc(-c2nc3c4c(nc(OCC56CCN5CC(F)(F)C6)nc4c2F)N2C[C@H]4CC[C@H](N4)[C@H]2[C@H](C(F)(F)F)O3)c1C(F)(F)F (single isomer, unassigned) [252 (isomer 2)] | 20 µM | 0.119 µM | –
7 | – | Cc1nc(N)cc(-c2nc3c4c(nc(OCC56CCCN5CC(F)C6)nc4c2F)N2CC4CCC(N4)[C@H]2[C@@H](C(F)(F)F)O3)c1C(F)(F)F (stereo in doubt) [Compound 243, 4-((6R,9S)-1-fluoro-12-(((2S,7aR)-2-fluorotetrahydro-1H-pyrrolizin-7a(5H)-yl)methoxy)-5-(trifluoromethyl)-5a,6,7,8,9,10-hexahydro-5H-4-oxa-3,10a,11,13,14-pentaaza-6,9-methanonaphtho[1,8-ab]heptalene-2-yl)-6-methyl-5-(trifluoromethyl)pyridin-2-amine] | 20 µM | 2 µM | –
8 | 1.14 µM | Cc1c(F)c(N)cc(-c2nc3c4c(nc(OC[C@]5(CN6CCOCC6)CC5(F)F)nc4c2F)N2C[C@H]4CC[C@H](N4)[C@H]2[C@H](C)O3)c1C(F)(F)F [167 a] | – | – | 0.00158 µM
9 | – | Cc1c(F)c(N)cc(-c2nc3c4c(nc(OC[C@@]56CCCN5C[C@H](F)C6)nc4c2F)N2C[C@H]4CC[C@H](N4)[C@H]2[C@H](C)O3)c1C=O [Compound 59, 4-Amino-3-fluoro-6-((5S,5aS,6S,9R)-1-fluoro-12-(((2R,7aS)-2-fluorotetrahydro-1H-pyrrolizin-7a(5H)-yl)methoxy)-5-methyl-5a,6,7,8,9,10-hexahydro-5H-4-oxa-3,10a,11,13,14-pentaaza-6,9-methanonaphtho[1,8-ab]heptalen-2-yl)-2-methylbenzaldehyde] | 10.5 µM | 0.117 µM | –
10 | – | Cc1cc(N)cc(-c2nc3c4c(nc(OC[C@@H]5CC[C@H]6COCCN65)nc4c2F)N2C[C@H]4CC[C@H](N4)[C@H]2[C@H](C)O3)c1C(F)(F)F [Compound 67, 3-((5S,5aS,6S,9R)-1-Fuoro-1-(((6S,8aS)-hexahydro-1H-pyrrolo[2,1-c][1,4]oxazin-6-yl)methoxy)-5-methyl-5a,6,7,8,9,10-hexahydro-5H-4-oxa-3,10a,11,13,14-pentaaza-6,9-methanonaphtho[1,8-ab]heptalen-2-yl)-5-methyl-4-(trifluoromethyl)aniline] | 0.639 µM | 0.00279 µM | –
